Data reported in patent US6239284A, “Aromatic tetracyclic compounds of the retinoid type method for preparing and use” (priority 1997, dated 2001).

Key:
[1] = test system: RARβ; assay: Transactivation of chimerical receptor RARβ-ERcassette, transient transfection of HeLa cells; format: cell-based
Description: (§1) The HeLa cells are co-transfected by a plasmid which codes for a retinoic receptor in which the C domain of bonding to the DNA is substituted by that of the receptor to RE estrogens, and a plasmid which places the expression of the luciferase under the control of an ERE (Element of Response to Estrogens). The expressed chimerical receptors are designated as RARα-ERcassette, RARβ-ERcassette, RARγ-ERcassette and RXRα-ERcassette. The A, B, D, E and F regions of the natural receptor are preserved as well as the transcriptional co-operation between the activation domains AF-1 and AF-2. These transitory transfection experiments follow the method of co-precipitation to calcium phosphate. The HeLa cells are co-transfected by […] of plasmid coding for the chimerical receptor, […] of reporter plasmid and […] of expression vector CMV-β-galactosidase used as an internal control of transfection. 24 hours after the transfection, the cells are incubated for 16 hours with the different effectors.
(§2) In this type of chimerical receptor, the C domain of bonding to the DNA of RAR is substituted by that of the receptor to the RE estrogens. The protein obtained is close to the natural RAR receptor and preserves the transcriptional properties of the AF-1 and AF-2 domains. It modulates the transcription by means of an ERE. This RAR-ERcassette model allows one to observe a transcriptional response to a more physiological ligand.
(§3) The study of the selectivity of the compounds was carried out with the RAR-ERcassette chimerical receptors model.
(§4) On one and the same line in the Table, the cis (Z) compound represents the isomeric structure of the trans (E) compound.

[2] = test system: T-47D cells; assay: Anti-proliferation effect, estrogen-induced growth of T-47D cells; format: cell-based, human
Experimental: (§5) So as to test the anti-proliferation effect of the retinoids, growth experiments under oestrogenic conditions were carried out on cells MCF-7 and T-47D. These are the human estrogen-dependent mammary cancer cells which express the receptor to RE estrogens. The effect of the molecules is evaluated after 7 days of culture in oestrogenic conditions (estradiol 10^-9 M) by dosing the cellular DNA. The cells are distributed in 24 well plates at a density of 2×10^4 cells per well. The tests with the different retinoids are carried out in triplicate and the culture medium is changed after 4 days of growth.
(§6) The effect of the retinoids on the growth of MCF-7 and T-47D cells is evaluated after 7 days of culture in the presence of 10^-9 M estradiol by dosing the cellular DNA.

[3] = test system: MCF-7 cells; assay: Anti-proliferation effect, estrogen-induced growth of MCF-7 cells; format: cell-based, human
Experimental: as §5, §6

[4] = test system: RARE; assay: HRL+N transactivation (stably transfected HeLa, RARE reporter, endogenic receptors); format: cell-based
Description: (§7) The cellular lineages HRLN and HRL+N allow one to study the activation of an RARE by endogenic receptors using ligands at physiological concentrations. These lineages derive from HeLa cells transfected in a stable fashion by a reporter gene which places the expression of the gene of the luciferase under the control of a nuclear response element RARE (RARE3 -tk-Luc). The HeLa cells express all the known receptors of the retinoic acid (RARα,β,γ and RXRα,β,γ) with a predominance of RARα and RXRα. The response element RARE used for the HRLN cells corresponds to the sequence of the natural gene of the RARβ receptor (GGTTCAnnnnnAGTTCA). The HRL+N cells comprise the sequence GAGTGAnnnnnCGGTGA.
The HRL+N lineage allows one to visualize a co-activation of the RAR and RXR receptors at the level of the RAR-RXR hetero-dimer.

[5] = test system: AP-1; assay: Anti-AP-1 effect, MTLN cellular lineage (MCF-7 with (TRE)3-tk-Luc) activated by TPA; format: cell-based, human; details: for Anti-AP-1 effect, Inhibition (%): 10^-7 M TPA, range of several experiments
Experimental: The anti-factor AP-1 transrepressor effect of retinoids is determined using the MTLN lineage, coming from MCF-7 cells transfected in a stable fashion by a vector p(TRE)3 -tk-Luc which places the expression of the gene of luciferase under the control of […]. TPA activates the AP-1 complex formed from proteins of the family of nuclear proto-oncogenes (c-Jun and c-Fos). […] The experiments ware made with the MTLN cells activated by 10^-7 M TPA.
The effect of the compounds on the MTLN cells activated by 10^-7 M TPA is expressed as a percentage. […] The inhibitive properties of the products are calculated after deduction of the base activity of the cells. The percentages reported correspond to a range of inhibitions determined from several experiments.

[6] = test system: RAR; assay: GAL-RAR model, specificity profile (transient transfection of HeLa cells)
Description: (§8) Studies of the transactivational specificity of the retinoids have been carried out by transitory transfection of HeLa cells. Two types of chimerical receptors can then be expressed by the cells. […] The C region (domain of bonding to the DNA) and the A and B regions (AF-1 activation domain) are suppressed.
(§9) These chimerical receptors activated by an agonist specifically stimulate the transcription of the gene of the luciferase present in a co-transfected plasmid ((17M)5-βG-Luc) where 17M is the response element of Gal4.

[7] = test system: RARβ; assay: Transactivation of chimerical receptor GAL4-RARβ, transient transfection of HeLa cells (luciferase)
Description: as §8, §9

[8] = test system: RARγ; assay: Transactivation of chimerical receptor GAL4-RARγ, transient transfection of HeLa cells (luciferase)
Description: as §8, §9

[9] = test system: RARα; assay: Transactivation of chimerical receptor RARα-ERcassette, transient transfection of HeLa cells; format: cell-based; details: -9 log M; 100% = TTNPB 10^-8 M
Description: as §1, §2, §3, §4

[10] = test system: RARE; assay: HRLN transactivation (stably transfected HeLa, RARE3-tk-Luc, endogenic receptors); format: cell-based
Description: as §7

[11] = test system: ERE; assay: Anti-estrogenic effect, MELN cellular lineage (MCF-7 with ERE-βGlob-Luc) activated by estradiol; format: cell-based, human; details: Homo sapiens, read-out: Anti-oestrogenic effect, Inhibition (%)
Experimental: MCF-7 cells express RARα,γ and RXRα. The transfection of MCF-7 cells by an estrogen-dependent gene (ERE-βGlob-Luc) has permitted the establishment of the MELN cellular lineage, used to determine the anti-oestrogenic activity of the retinoids. These cells contain the gene of the luciferase under the transcriptional control of the promoter of the βGlobine and of the response element ERE isolated from the gene of chicken vitelogenine A2. The experiments are carried out with MELN cells activated by 10^-9 M estradiol. The level of base activity of the MELN cells is obtained with the anti-estrogen 1 μM 4-OH-tamoxifen (hydroxytamoxifen).
The effect of the products tested on the cells activated by 10^-9 M estradiol is expressed as a percentage, the level of base activity being deducted.

[12] = test system: RAR; assay: RAR-ERcassette model, specificity profile (transient transfection of HeLa cells); format: cell-based
Description: as §1, §2, §3

[13] = test system: ERE; details: cited from earlier work
[14] = test system: RARα; assay: Transactivation of chimerical receptor GAL4-RARα, transient transfection of HeLa cells (luciferase)
Description: as §8, §9

C=C(c1ccc(C(=O)O)cc1)c1cc2c(cc1C)C(C)(C)CCC2(C)C [LGD1069]
RARβ transactivation (RAR-ERcassette) in words [1]: transcriptional power appears higher notably through the RARβ-ERcassette | Effect on growth of T-47D cells in words ([2]; estrogenic conditions): no effect whatsoever on the growth | Effect on growth of MCF-7 cells in words ([3]; estrogenic conditions): no effect whatsoever on the growth | HRL+N transactivation in words [4]: more effective than the RAR specific molecules | Anti-AP-1 effect (MTLN) in words [5]: most effective compound tested in this model | GAL-RAR agonist profile in words [6]: do not allow one to observe a good transactivation mediated by RAR | GAL4-RARβ activity, % of activity measured for 10^-8 M TTNPB ([7]; Concentration -7 (log M)): 5% | GAL4-RARβ activity, % of activity measured for 10^-8 M TTNPB ([7]; Concentration -8 (log M)): 1% | GAL4-RARγ activity, % of activity measured for 10^-8 M TTNPB ([8]; Concentration -6 (log M)): 29% | GAL4-RARγ activity, % of activity measured for 10^-8 M TTNPB ([8]; Concentration -7 (log M)): 8% | GAL4-RARγ activity, % of activity measured for 10^-8 M TTNPB ([8]; Concentration -8 (log M)): 1%

CC1=C(/C=C/C(C)=C/C=C/C(C)=C/C(=O)O)C(C)(C)CCC1 [ttRA, all trans retinoic acid]
RAR-ERcassette RARα transactivation (%) [9]: 65% | IC50 ([2]; Homo sapiens, T47D, 168 h, read-out: T-47D IC50 (growth inhibition by 50%)): 0.0391 µM | IC50 ([3]; Homo sapiens, MCF7, 168 h, read-out: MCF-7 IC50 (growth inhibition by 50%)): 0.0141 ± 0.0103 µM | HRLN transactivation in words [10]: dose-dependent activation | EC50 ([10]; Homo sapiens, HeLa, concentrations from 1 nM to 1 μM, read-out: HRLN transactivation EC50): 0.0025 ± 0.004 µM | Emax ([10]; Homo sapiens, HeLa, read-out: HRLN transactivation E max %): 208% | Anti-AP-1 effect, Inhibition (%) ([5]; -7 log M): 28-44% | Anti-AP-1 effect, Inhibition (%) ([5]; -8 log M): 22-33% | inhibition at 0.1 µM [11]: 35% | RAR-ERcassette profile in words [12]: induce an over-expression of luciferase in comparison to the induction brought about by a synthetic compound (TTNPB) | Effect on cellular growth and expression of estrogen-dependent genes [13]: reduces the cellular growth and the expression of estrogen-dependent genes | GAL-RAR agonist profile in words [6]: good RAR agonists | GAL4-RARα activity, % of activity measured for 10^-8 M TTNPB ([14]; Concentration -6 (log M)): 108% | GAL4-RARα activity, % of activity measured for 10^-8 M TTNPB ([14]; Concentration -7 (log M)): 102% | GAL4-RARα activity, % of activity measured for 10^-8 M TTNPB ([14]; Concentration -8 (log M)): 82% | GAL4-RARβ activity, % of activity measured for 10^-8 M TTNPB ([7]; Concentration -6 (log M)): 92% | GAL4-RARβ activity, % of activity measured for 10^-8 M TTNPB ([7]; Concentration -7 (log M)): 93% | GAL4-RARβ activity, % of activity measured for 10^-8 M TTNPB ([7]; Concentration -8 (log M)): 104%
